Assay [1] deals with T1, human noradrenaline transporter (hNET) (Homo sapiens, UniProt P23975).
T1 construct: expressed in transfected cells; host or cells: COS-7 cells (ATCC), transient transfection with metafectene
The assay is described as follows: cell-based.

The target of assay [2] is T1, human noradrenaline transporter (hNET). The assay is described as follows: biochemical. Format: binding.

The IC50 is the concentration at which inhibition is half-maximal.

T1 sequence (P23975 whole entry): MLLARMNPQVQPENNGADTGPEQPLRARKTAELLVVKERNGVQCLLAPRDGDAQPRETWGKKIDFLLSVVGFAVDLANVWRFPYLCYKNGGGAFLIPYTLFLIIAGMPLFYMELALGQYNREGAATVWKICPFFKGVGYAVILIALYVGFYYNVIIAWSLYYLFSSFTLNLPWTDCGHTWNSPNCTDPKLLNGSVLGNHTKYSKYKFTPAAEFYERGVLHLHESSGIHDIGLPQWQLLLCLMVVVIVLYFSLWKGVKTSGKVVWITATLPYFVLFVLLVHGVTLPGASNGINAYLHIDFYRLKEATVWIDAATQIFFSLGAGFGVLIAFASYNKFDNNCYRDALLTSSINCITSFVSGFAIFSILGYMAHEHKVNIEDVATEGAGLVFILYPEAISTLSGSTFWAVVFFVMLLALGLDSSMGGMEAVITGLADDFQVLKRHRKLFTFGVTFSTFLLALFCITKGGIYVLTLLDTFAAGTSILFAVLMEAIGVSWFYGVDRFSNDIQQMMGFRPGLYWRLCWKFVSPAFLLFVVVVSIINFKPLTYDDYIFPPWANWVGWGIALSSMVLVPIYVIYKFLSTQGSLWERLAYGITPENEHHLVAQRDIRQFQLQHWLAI

With `CC(C)C[C@@H]1NC(=O)[C@H](CCCCN)NC(=O)[C@H](Cc2ccc(O)cc2)NC(=O)CNC(=O)[C@@H]2CSSC[C@H](NC1=O)C(=O)N[C@@H](Cc1c[nH]cn1)C(=O)N1C[C@H](O)C[C@H]1C(=O)N[C@@H](C(N)=O)CSSC[C@H](NC(=O)[C@@H](NC(=O)CNC(=O)[C@@H]1CCC(=O)N1)C(C)C)C(=O)N2` [SEQ ID NO. 5, Xaa1 Gly Val Cys Cys Gly Tyr Lys Leu Cys His Xaa3 Xaa5], the figures for the IC50 in assay [1] and in assay [2] were 575 nM and 4170 nM, respectively.

On to `COc1ccc(C[C@@H]2NC(=O)CNC(=O)[C@@H]3CSSC[C@H](NC(=O)[C@H](CC(C)C)NC(=O)[C@H](CCCCN)NC2=O)C(=O)N[C@@H](Cc2c[nH]cn2)C(=O)N2C[C@H](O)C[C@H]2C(=O)N[C@H](C(N)=O)CSSC[C@H](NC(=O)[C@@H](NC(=O)CNC(=O)[C@@H]2CCC(=O)N2)C(C)C)C(=O)N3)cc1` [SEQ ID NO. 6, Xaa1 Gly Val Cys Cys Gly Xaa4 Lys Leu Cys His Xaa3 Cys], for which the IC50 was 214 nM in assay [1] and 1150 nM in assay [2].

As to `CC(C)C[C@@H]1NC(=O)[C@H](CCCCN)NC(=O)[C@H](Cc2ccc(O)cc2)NC(=O)CNC(=O)[C@@H]2CSSC[C@H](NC1=O)C(=O)N[C@@H](Cc1c[nH]cn1)C(=O)N1C[C@H](O)C[C@H]1C(=O)N[C@H](C(=O)O)CSSC[C@H](NC(=O)[C@@H](NC(=O)CNC(=O)[C@@H]1CCC(=O)N1)C(C)C)C(=O)N2` [SEQ ID NO. 9, Xaa1 Gly Val Cys Cys Gly Tyr Lys Leu Cys His Xaa3 Cys —OH], in assay [2], the IC50 was 8320 nM.

These data come from US7851444B2 (priority 2002, dated 2010).
